This note sets out measurements from ChEMBL document CHEMBL5033997, “Macrolide Inspired Macrocycles as Modulators of the IL-17A/IL-17RA Interaction” (J Med Chem, 2021).

Where only a bound is given, the exact number is not on record here.

For orientation: IC50 means the midpoint of a concentration-inhibition curve.

This assay in a line: Inhibition of recombinant human IL-17A/IL-17AR protein-protein interaction using TMB substrate compound added on IL17A precoated plate and followed by IL-17AR addition by ELISA. Background: ELISA stands for enzyme-linked immunosorbent assay.
For the compound `CO[C@]1(C)C[C@H](O[C@H]2[C@H](C)[C@@H](O[C@@H]3O[C@H](C)C[C@H](N(C)C)[C@H]3O)[C@](C)(O)C[C@@H](C)CN(C)C(=O)[C@H](Cc3ccc(NC(=O)[C@H](Cc4ccccc4Cl)NC(=O)Cc4ccccc4)cc3)NC(=O)[C@@H](C(C)C)NC(=O)[C@@H]2C)O[C@@H](C)[C@@H]1O`, the IC50 is 1.4 µM. `CO[C@]1(C)C[C@H](O[C@H]2[C@H](C)[C@@H](O[C@@H]3O[C@H](C)C[C@H](N(C)C)[C@H]3O)[C@](C)(O)C[C@@H](C)CN(C)C(=O)C[C@@H](Cc3ccc(NC(=O)[C@H](Cc4ccccc4Cl)NC(=O)Cc4ccccc4)cc3)NC(=O)C[C@H](C(C)C)NC(=O)[C@@H]2C)O[C@@H](C)[C@@H]1O`: the IC50 is > 30 µM. Take `CO[C@]1(C)C[C@H](O[C@H]2[C@H](C)[C@@H](O[C@@H]3O[C@H](C)C[C@H](N(C)C)[C@H]3O)[C@](C)(O)C[C@@H](C)CN(C)C(=O)[C@@H](Cc3ccc(NC(=O)[C@H](Cc4ccccc4Cl)NC(=O)Cc4ccccc4)cc3)NC(=O)C[C@H](C(C)C)NC(=O)[C@@H]2C)O[C@@H](C)[C@@H]1O`: the IC50 was > 30 µM. In the case of `CO[C@]1(C)C[C@H](O[C@H]2[C@H](C)[C@@H](O[C@@H]3O[C@H](C)C[C@H](N(C)C)[C@H]3O)[C@](C)(O)C[C@@H](C)CN(C)C(=O)C[C@@H](Cc3ccc(NC(=O)[C@H](Cc4ccccc4Cl)NC(=O)Cc4ccccc4)cc3)NC(=O)[C@@H]3CCC[C@H]3NC(=O)[C@@H]2C)O[C@@H](C)[C@@H]1O` it was 5.9 µM. Turning to `CO[C@]1(C)C[C@H](O[C@H]2[C@H](C)[C@@H](O[C@@H]3O[C@H](C)C[C@H](N(C)C)[C@H]3O)[C@](C)(O)C[C@@H](C)CN(C)C(=O)C[C@@H](Cc3ccc(NC(=O)[C@H](Cc4ccccc4Cl)NC(=O)Cc4ccccc4)cc3)NC(=O)CCNC(=O)[C@@H]2C)O[C@@H](C)[C@@H]1O`, the IC50 was > 30 µM. With `CO[C@]1(C)C[C@H](O[C@H]2[C@H](C)[C@@H](O[C@@H]3O[C@H](C)C[C@H](N(C)C)[C@H]3O)[C@](C)(O)C[C@@H](C)CN(C)C(=O)C[C@@H](Cc3ccc(NC(=O)[C@H](Cc4ccccc4Cl)NC(=O)Cc4ccccc4)cc3)NC(=O)CC3(CCCC3)CNC(=O)[C@@H]2C)O[C@@H](C)[C@@H]1O`, the IC50 is 6.76 µM. As to `CO[C@]1(C)C[C@H](O[C@H]2[C@H](C)[C@@H](O[C@@H]3O[C@H](C)C[C@H](N(C)C)[C@H]3O)[C@](C)(O)C[C@@H](C)CN(C)C(=O)C[C@@H](Cc3ccc(NC(=O)[C@H](Cc4ccccc4Cl)NC(=O)NCc4ccc(F)cc4)cc3)NC(=O)[C@H](C(C)C)NC(=O)[C@@H]2C)O[C@@H](C)[C@@H]1O`, the IC50 came to 0.179 µM. For `CO[C@]1(C)C[C@H](O[C@H]2[C@H](C)[C@@H](O[C@@H]3O[C@H](C)C[C@H](N(C)C)[C@H]3O)[C@](C)(O)C[C@@H](C)CN(C)C(=O)C[C@@H](Cc3ccc(NC(=O)[C@H](Cc4ccc(Cl)cc4Cl)NC(=O)Cc4ccccc4)cc3)NC(=O)[C@H](C(C)C)NC(=O)[C@@H]2C)O[C@@H](C)[C@@H]1O`, the IC50 worked out at 0.211 µM. With `CO[C@]1(C)C[C@H](O[C@H]2[C@H](C)[C@@H](O[C@@H]3O[C@H](C)C[C@H](N(C)C)[C@H]3O)[C@](C)(O)C[C@@H](C)CN(C)C(=O)C[C@@H](Cc3ccc(NC(=O)[C@H](Cc4ccccc4Cl)NC(=O)Cc4ccc(C)cc4)cc3)NC(=O)[C@H](C(C)C)NC(=O)[C@@H]2C)O[C@@H](C)[C@@H]1O`, the IC50 was determined as 0.243 µM. For `CO[C@]1(C)C[C@H](O[C@H]2[C@H](C)[C@@H](O[C@@H]3O[C@H](C)C[C@H](N(C)C)[C@H]3O)[C@](C)(O)C[C@@H](C)CN(C)C(=O)C[C@@H](Cc3ccc(NC(=O)[C@H](Cc4ccccc4Cl)NC(=O)OCc4ccccc4)cc3)NC(=O)[C@H](C(C)C)NC(=O)[C@@H]2C)O[C@@H](C)[C@@H]1O` the value was 0.059 µM; for `CO[C@]1(C)C[C@H](O[C@H]2[C@H](C)[C@@H](O[C@@H]3O[C@H](C)C[C@H](N(C)C)[C@H]3O)[C@](C)(O)C[C@@H](C)CN(C)C(=O)C[C@@H](Cc3ccc(NC(=O)[C@H](Cc4ccccc4)NC(=O)Cc4ccccc4)cc3)NC(=O)[C@H](C(C)C)NC(=O)[C@@H]2C)O[C@@H](C)[C@@H]1O`, 2.56 µM; for `CO[C@]1(C)C[C@H](O[C@H]2[C@H](C)[C@@H](O[C@@H]3O[C@H](C)C[C@H](N(C)C)[C@H]3O)[C@](C)(O)C[C@@H](C)CN(C)C(=O)C[C@@H](Cc3ccc(NC(=O)[C@H](Cc4ccccc4Cl)NC(=O)Cc4ccccc4)cc3)NC(=O)[C@@H](C(C)C)CNC(=O)[C@@H]2C)O[C@@H](C)[C@@H]1O`, 24.8 µM.

Consider `CO[C@]1(C)C[C@H](O[C@H]2[C@H](C)[C@@H](O[C@@H]3O[C@H](C)C[C@H](N(C)C)[C@H]3O)[C@](C)(O)C[C@@H](C)CN(C)C(=O)C[C@@H](Cc3ccc(NC(=O)[C@H](Cc4ccccc4Cl)NC(=O)Cc4ccccc4)cc3)NC(=O)[C@@H](C(C)C)NC(=O)[C@@H]2C)O[C@@H](C)[C@@H]1O`, for which the IC50 is > 30 µM. With `CO[C@]1(C)C[C@H](O[C@H]2[C@H](C)[C@@H](O[C@@H]3O[C@H](C)C[C@H](N(C)C)[C@H]3O)[C@](C)(O)C[C@@H](C)CN(C)C(=O)C[C@@H](Cc3ccc(NC(=O)[C@H](Cc4ccccc4Cl)NC(=O)Nc4ccccc4F)cc3)NC(=O)[C@H](C(C)C)NC(=O)[C@@H]2C)O[C@@H](C)[C@@H]1O`, the IC50 was determined as 0.03 µM. Take `CO[C@]1(C)C[C@H](O[C@H]2[C@H](C)[C@@H](O[C@@H]3O[C@H](C)C[C@H](N(C)C)[C@H]3O)[C@](C)(O)C[C@@H](C)CN(C)C(=O)C[C@@H](Cc3ccc(NC(=O)[C@H](Cc4ccccc4Cl)NC(=O)Cc4ccccc4)cc3)NC(=O)[C@@H]3CCCN3C(=O)[C@@H]2C)O[C@@H](C)[C@@H]1O`: the IC50 was > 30 µM. In the case of `CO[C@]1(C)C[C@H](O[C@H]2[C@H](C)[C@@H](O[C@@H]3O[C@H](C)C[C@H](N(C)C)[C@H]3O)[C@](C)(O)C[C@@H](C)CN(C)C(=O)C[C@@H](Cc3ccc(NC(=O)[C@H](Cc4ccccc4Cl)NC(=O)C(O)c4ccccc4)cc3)NC(=O)[C@H](C(C)C)NC(=O)[C@@H]2C)O[C@@H](C)[C@@H]1O` (some centres undefined) it was 1.19 µM; in that of `CO[C@]1(C)C[C@H](O[C@H]2[C@H](C)[C@@H](O[C@@H]3O[C@H](C)C[C@H](N(C)C)[C@H]3O)[C@](C)(O)C[C@@H](C)CN(C)C(=O)[C@@H](Cc3ccc(NC(=O)[C@H](Cc4ccccc4Cl)NC(=O)Cc4ccccc4)cc3)NC(=O)[C@@H](C(C)C)CNC(=O)[C@@H]2C)O[C@@H](C)[C@@H]1O`, > 30 µM.

Take `CO[C@]1(C)C[C@H](O[C@H]2[C@H](C)[C@@H](O[C@@H]3O[C@H](C)C[C@H](N(C)C)[C@H]3O)[C@](C)(O)C[C@@H](C)CN(C)C(=O)C[C@@H](Cc3ccc(NC(=O)[C@H](Cc4ccccc4Cl)NC(=O)Cc4ccccc4)cc3)NC(=O)C[C@@H](CC(C)C)NC(=O)[C@@H]2C)O[C@@H](C)[C@@H]1O`: the concentration for half-maximal inhibition (IC50) is > 30 µM. Regarding `CO[C@]1(C)C[C@H](O[C@H]2[C@H](C)[C@@H](O[C@@H]3O[C@H](C)C[C@H](N(C)C)[C@H]3O)[C@](C)(O)C[C@@H](C)CN(C)C(=O)C[C@@H](Cc3ccc(NC(=O)[C@H](Cc4ccccc4Cl)NS(=O)(=O)Cc4ccccc4)cc3)NC(=O)[C@H](C(C)C)NC(=O)[C@@H]2C)O[C@@H](C)[C@@H]1O`, the IC50 came out at 2.56 µM.
